Source: patent US11242511B2, “Cytoplasmic protein complex comprising a kinase substrate sensor, cells comprising the complex, and associated detection methods” (VIB VZW, priority 2011, dated 2022)

Legend:
[1] = test system: Tyk2(R1027A); test: Imidazole-inducible version of the assay, Tyk2(R1027A)-RTp66 fusion, luciferase reporter; assay type: cell-based, human; settings: HEK293-T cells, 0.5-50 mM imidazole
Method: (§1) Transfections were carried out using a standard calcium phosphate method. HEK293-T cells were seeded in black tissue-culture treated 96-well plates at 10,000 cells/well in 100 μl culture medium (DMEM supplemented with 10% FCS). Twenty-four hours later, plasmid DNA mixes were prepared that contained plasmids encoding fusion proteins with the first and second interacting proteins and reporter plasmids. The DNA was supplemented with 10 μl 2.5M CaCl2) and double distilled water to a final volume of 100 μl. This mixture was added dropwise to 100 μl 2×HeBS buffer (280 mM NaCl, 1.5 mM Na2HPO4, 50 mM Hepes; pH 7.05) while vigorously vortexing. After incubation at room temperature for 15 minutes to allow DNA precipitates to form, the solution was added to the cells at […] Cells were incubated at 37° C., 8% CO2. Forty-eight hours after transfection, luciferase activity was measured using the Luciferase Assay System kit (Promega) on a TopCount luminometer (Perkin-Elmer). Each transfection was done in triplicate and the average of the luciferase activity readings was used in the calculations.
(§2) A Nutlin-3 (Sigma) stock solution of 20 mM in DMSO was diluted in culture medium and added to the cells 24 hours after transfection. Imidazole (Sigma) diluted in culture medium was added to the cells 24 hours after transfection. […]

[2] = test system: Tyk2(C); test: Imidazole treatment of the constitutive Tyk2(C)-RTp66 fusion assay, luciferase reporter; assay type: cell-based, human; settings: HEK293-T cells, pMet7-HA-Tyk2(C)-RTp66; 0.5-50 mM imidazole
Method: as §1, §2

[3] = molecular target: T1, EFHA1 (which binds to Tyk2(C) itself) (Homo sapiens, UniProt Q8IYU8); test: Tyk2(C) kinase substrate sensor luciferase reporter assay, EFHA1 control interaction; assay type: cell-based; settings: HEK293-T cells, pMet7-HA-Tyk2(C)-p53(N)+pMG1-EFHA1; 0-3333 nM; FIG. 4
T1 construct: expressed in transfected cells; host or cells: HEK293-T
T1 sequence (Q8IYU8 1-434): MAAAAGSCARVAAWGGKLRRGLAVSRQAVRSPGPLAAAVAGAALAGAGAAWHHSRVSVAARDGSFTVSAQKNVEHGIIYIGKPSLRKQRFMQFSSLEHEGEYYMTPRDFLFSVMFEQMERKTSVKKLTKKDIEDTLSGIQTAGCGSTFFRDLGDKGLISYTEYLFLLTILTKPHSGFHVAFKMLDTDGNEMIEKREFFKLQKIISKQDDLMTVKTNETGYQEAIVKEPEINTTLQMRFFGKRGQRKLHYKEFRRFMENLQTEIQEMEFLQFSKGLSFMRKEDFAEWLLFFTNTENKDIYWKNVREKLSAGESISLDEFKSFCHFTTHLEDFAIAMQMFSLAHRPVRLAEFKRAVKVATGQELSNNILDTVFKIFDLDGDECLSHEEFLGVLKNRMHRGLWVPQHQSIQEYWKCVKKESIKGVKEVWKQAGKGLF

Structure (SMILES): c1c[nH]cn1 [imidazole]
- background signal, Tyk2 fusion construct with unfused gp130 fragment (pMG1) ([1]; Tyk2 fusion construct + pMG1): unaffected
- maximal imidazole-dependent induction of the signal (interaction between HIV RTp66 and RTp51) compared to untreated cells ([1]; pMet7-HA-Tyk2(R1027A)-RTp66+pMG2-RTp51, added 24 hours after transfection): 36 fold
- imidazole regulation of the signal in cells transfected with the Tyk2(C) fusion [2]: did not exhibit any imidazole regulation

Structure (SMILES): COc1ccc(C2=N[C@@H](c3ccc(Cl)cc3)[C@@H](c3ccc(Cl)cc3)N2C(=O)N2CCNC(=O)C2)c(OC(C)C)c1 [Nutlin-3]
- signal corresponding to the interaction with EFHA1 [3]: unaffected
